Measurements as given in ChEMBL document CHEMBL5380782, “Design, Biological Evaluation, and Computer-Aided Analysis of Dihydrothiazepines as Selective Antichlamydial Agents” (J Med Chem, 2023).

What was measured:
Pichia kudriavzevii = test: Antimicrobial activity against Pichia kudriavzevii 6558 assessed as microbial growth inhibition by broth microdilution method; type: functional
Anaerostipes caccae = test: Antimicrobial activity against Anaerostipes caccae […] assessed as microbial growth inhibition incubated for 48 hrs; type: functional
Staphylococcus aureus = test: Antimicrobial activity against Staphylococcus aureus USA 300 JE2 assessed as microbial growth inhibition incubated for 24 hrs by TTC staining based assay; type: functional
[1] = Mutagenicity in Salmonella typhimurium TA98 assessed as mutagenic index ratio at 5000 ug pretreated for 90 mins measured after 66 hrs in presence of S9 fraction by AMES test; type: toxicity, subcellular, Salmonella enterica subsp. enterica serovar Typhimurium; settings: s9, 67.5 h, dose 5000 µg
[2] = Mutagenicity in Salmonella typhimurium TA100 assessed as number of revertants per plate at 500 ug pretreated for 90 mins measured after 66 hrs in presence of S9 by AMES test (reference value: 201 +/- 9.90); type: toxicity, Salmonella enterica subsp. enterica serovar Typhimurium; settings: in vivo, 67.5 h, dose 500 µg
Nakaseomyces glabratus = test: Antimicrobial activity against Candida glabrata 2001 assessed as microbial growth inhibition by broth microdilution method; type: functional
[3] = Mutagenicity in Salmonella typhimurium TA100 assessed as mutagenic index ratio at 50 ug pretreated for 90 mins measured after 66 hrs by AMES test; type: toxicity, Salmonella enterica subsp. enterica serovar Typhimurium; settings: in vivo, 67.5 h, dose 50 µg
[4] = Stability of compound in simulated gastric fluid assessed as compound remaining at 2 mg/ml measured after 24 hrs by HPLC analysis; type: ADME; settings: read-out: Stability
[5] = Cytotoxicity against HEC-1-A cells assessed as cell survival at 256 ug/ml incubated for 20 hrs by XTT assay relative to control; type: toxicity, cell-based; settings: human, at 256 µg/mL, read-out: Survival
[6] = Mutagenicity in Salmonella typhimurium TA100 assessed as mutagenic index ratio at 50 ug pretreated for 90 mins measured after 66 hrs in presence of S9 by AMES test; type: toxicity, Salmonella enterica subsp. enterica serovar Typhimurium; settings: in vivo, 67.5 h, dose 50 µg
[7] = Cytotoxicity against HEp-2 cells assessed as cell viability at 256 ug/ml incubated for 20 hrs by XTT assay relative to control; type: toxicity, cell-based; settings: human, at 256 µg/mL, read-out: Activity
[8] = Mutagenicity in Salmonella typhimurium TA98 assessed as mutagenic index ratio at 1500 ug pretreated for 90 mins measured after 66 hrs by AMES test; type: toxicity, Salmonella enterica subsp. enterica serovar Typhimurium; settings: in vivo, 67.5 h, dose 1500 µg
Blautia producta = test: Antimicrobial activity against Blautia producta DSM 2950 assessed as microbial growth inhibition incubated for 48 hrs; type: functional
[9] = Mutagenicity in Salmonella typhimurium TA98 assessed as number of revertants per plate at 5000 ug pretreated for 90 mins measured after 66 hrs in presence of S9 fraction by AMES test (reference value: 24.33 +/- 9.50); type: toxicity, subcellular, Salmonella enterica subsp. enterica serovar Typhimurium; settings: s9, 67.5 h, dose 5000 µg
[10] = Mutagenicity in Salmonella typhimurium TA98 assessed as mutagenic index ratio at 150 ug pretreated for 90 mins measured after 66 hrs by AMES test; type: toxicity, Salmonella enterica subsp. enterica serovar Typhimurium; settings: in vivo, 67.5 h, dose 150 µg
[11] = Mutagenicity in Salmonella typhimurium TA98 assessed as number of revertants per plate at 50 ug pretreated for 90 mins measured after 66 hrs in presence of S9 fraction by AMES test (reference value: 24.33 +/- 9.50); type: toxicity, subcellular, Salmonella enterica subsp. enterica serovar Typhimurium; settings: s9, 67.5 h, dose 50 µg
[12] = Mutagenicity in Salmonella typhimurium TA100 assessed as mutagenic index ratio at 500 ug pretreated for 90 mins measured after 66 hrs in presence of S9 by AMES test; type: toxicity, Salmonella enterica subsp. enterica serovar Typhimurium; settings: in vivo, 67.5 h, dose 500 µg
[13] = system: Bacteroides thetaiotaomicron; test: Antimicrobial activity against Bacteroides thetaiotaomicron DSM 2079 assessed as microbial growth inhibition incubated for 48 hrs; type: functional
Candida albicans = test: Antimicrobial activity against Candida albicans 90028 assessed as microbial growth inhibition by broth microdilution method; type: functional
Pseudomonas aeruginosa = test: Antimicrobial activity against Pseudomonas aeruginosa PA01 assessed as microbial growth inhibition incubated for 24 hrs by TTC staining based assay; type: functional
[14] = Mutagenicity in Salmonella typhimurium TA100 assessed as number of revertants per plate at 50 ug pretreated for 90 mins measured after 66 hrs by AMES test (reference value: 206 +/- 7.07); type: toxicity, Salmonella enterica subsp. enterica serovar Typhimurium; settings: in vivo, 67.5 h, dose 50 µg
[15] = Mutagenicity in Salmonella typhimurium TA100 assessed as mutagenic index ratio at 5000 ug pretreated for 90 mins measured after 66 hrs in presence of S9 by AMES test; type: toxicity, Salmonella enterica subsp. enterica serovar Typhimurium; settings: in vivo, 67.5 h, dose 5000 µg
[16] = system: Lactiplantibacillus plantarum; test: Antimicrobial activity against Lactobacillus plantarum DSM 20174 assessed as microbial growth inhibition incubated for 24 hrs; type: functional
Escherichia coli [17] = test: Antimicrobial activity against Escherichia coli K12 assessed as microbial growth inhibition incubated for 24 hrs by TTC staining based assay; type: functional
[18] = Mutagenicity in Salmonella typhimurium TA98 assessed as number of revertants per plate at 1500 ug pretreated for 90 mins measured after 66 hrs by AMES test (reference value: 25.67 +/- 5.51); type: toxicity, Salmonella enterica subsp. enterica serovar Typhimurium; settings: in vivo, 67.5 h, dose 1500 µg
[19] = Stability of compound in simulated gastric fluid assessed as compound remaining at 2 mg/ml measured after 180 mins by HPLC analysis; type: ADME; settings: read-out: Stability
[20] = Stability of compound in simulated intestinal fluid assessed as compound remaining at 2 mg/ml measured after 24 hrs by HPLC analysis; type: ADME; settings: read-out: Stability
[21] = Mutagenicity in Salmonella typhimurium TA98 assessed as mutagenic index ratio at 500 ug pretreated for 90 mins measured after 66 hrs by AMES test; type: toxicity, Salmonella enterica subsp. enterica serovar Typhimurium; settings: in vivo, 67.5 h, dose 500 µg
[22] = Mutagenicity in Salmonella typhimurium TA100 assessed as number of revertants per plate at 5000 ug pretreated for 90 mins measured after 66 hrs by AMES test (reference value: 206 +/- 7.07); type: toxicity, Salmonella enterica subsp. enterica serovar Typhimurium; settings: in vivo, 67.5 h, dose 5000 µg
Escherichia coli [23] = test: Antimicrobial activity against non-pathogenic Escherichia coli ATCC MG1655 assessed as microbial growth inhibition incubated for 24 hrs by TTC staining based assay; type: functional
[24] = Mutagenicity in Salmonella typhimurium TA100 assessed as number of revertants per plate at 1500 ug pretreated for 90 mins measured after 66 hrs in presence of S9 by AMES test (reference value: 201 +/- 9.90); type: toxicity, Salmonella enterica subsp. enterica serovar Typhimurium; settings: in vivo, 67.5 h, dose 1500 µg
[25] = Mutagenicity in Salmonella typhimurium TA100 assessed as mutagenic index ratio at 150 ug pretreated for 90 mins measured after 66 hrs in presence of S9 by AMES test; type: toxicity, Salmonella enterica subsp. enterica serovar Typhimurium; settings: in vivo, 67.5 h, dose 150 µg
[26] = Stability of compound in human serum assessed as compound remaining at 2 mg/ml measured after 180 mins by HPLC analysis; type: ADME, cell-free; settings: read-out: Stability
[27] = Mutagenicity in Salmonella typhimurium TA100 assessed as mutagenic index ratio at 150 ug pretreated for 90 mins measured after 66 hrs by AMES test; type: toxicity, Salmonella enterica subsp. enterica serovar Typhimurium; settings: in vivo, 67.5 h, dose 150 µg
Chlamydia trachomatis = test: Antibacterial activity against Chlamydia trachomatis L2 infected in HEp-2 cells assessed as reduction in number of chlamydial inclusion incubated for 24 hrs by fluorescence microscopy; type: functional, organism-based; settings: dose 1.56-12.5 µg/ml
[28] = Mutagenicity in Salmonella typhimurium TA100 assessed as number of revertants per plate at 1500 ug pretreated for 90 mins measured after 66 hrs by AMES test (reference value: 206 +/- 7.07); type: toxicity, Salmonella enterica subsp. enterica serovar Typhimurium; settings: in vivo, 67.5 h, dose 1500 µg

N#Cc1ccccc1C1Sc2ccccc2NC2=C1C(=O)c1ccccc12 (stereo unspecified)
MIC (Pichia kudriavzevii): > 1000 µg/mL
MIC (Anaerostipes caccae): > 125 µg/mL
MIC (Staphylococcus aureus): > 125 µg/mL
Ratio [1]: 1.78
Activity [2]: 191.5
MIC (Nakaseomyces glabratus): > 1000 µg/mL
Ratio [3]: 0.92
remaining at 24 h, 2 mg/ml [4]: 70%
viability at 20 h, 256 ug/ml [5]: ≥ 75%
Ratio [6]: 0.92
viability at 20 h, 256 ug/ml [7]: 50%
Ratio [8]: 1.51
MIC (Blautia producta): > 125 µg/mL
Activity [9]: 43.5
Ratio [10]: 1.34
Activity [11]: 32
Ratio [12]: 0.95
MIC [13]: > 125 µg/mL
MIC (Candida albicans): > 1000 µg/mL
MIC (Pseudomonas aeruginosa): > 125 µg/mL
Activity [14]: 190.5
Ratio [15]: 1.12
MIC [16]: > 125 µg/mL
MIC (Escherichia coli [17]): > 125 µg/mL
Activity [18]: 39
remaining at 3 h, 2 mg/ml [19]: 90%
remaining at 24 h, 2 mg/ml [20]: 85%
Ratio [21]: 1.48
Activity [22]: 241
MIC (Escherichia coli [23]): > 125 µg/mL
Activity [24]: 198.5
Ratio [25]: 0.93
remaining at 3 h, 2 mg/ml [26]: 100%
Ratio [27]: 0.91
Activity (Chlamydia trachomatis): Dose-Dependent Effect
Activity [28]: 241
